Data as given in US8729087B2, “Compositions and methods for inhibition of the JAK pathway” (Rigel Pharmaceuticals, Inc., priority 2006, dated 2014).
Read-outs that look alike come from different tables or passages of the source.

Assays:
[1] = tested on: Ramos B-cell line stimulated with IL-4; assay: Assay for Ramos B-Cell Line Stimulated with IL-4 (CD23 upregulation, FACS); type: cell-based, human; settings: read-out: Example 2 (IC50, Ramos B-cell line stimulated with IL-4)
Source text: One means of assaying for such inhibition is detection of the effect of the 2,4-pyrimidinediamine compounds on the upregulation of downstream gene products. In the Ramos/IL4 assay, B-cells are stimulated with the cytokine Interleukin-4 (IL-4) leading to the activation of the JAK/Stat pathway through phosphorylation of the JAK family kinases, JAK1 and JAK3, which in turn phosphorylate and activate the transcription factor Stat-6. […] To study the effect of inhibitors (e.g., the 2,4-substituted pyrimindinediamine compounds described herein) on the JAK1 and JAK3 kinases, human Ramos B cells are stimulated with human IL-4. Twenty to 24 hours post stimulation, cells are stained for upregulation of CD23 and analyzed using flow cytometry (FACS). […] An exemplary assay of this type is described in greater detail in Example 2.
B-cells stimulated with cytokine Interleukin-4 (IL-4) activate the JAK/Stat pathway through phosphorylation of the JAK family kinases, JAK-1 and JAK-3, which in turn phosphorylate and activate the transcription factor Stat-6. […] To study the effect of inhibitors on the JAK family kinases, human Ramos B cells are stimulated with human IL-4.
The Ramos B-cell line was acquired from ATCC (ATCC Catalog No. CRL-1596). The cells were cultured in RPMI 1640 (Cellgro, MediaTech, Inc., Herndon, Va., Cat No. 10-040-CM) with 10% fetal bovine serum (FBS), heat inactivated (JRH Biosciences, Inc, Lenexa, Kans., Cat No. 12106-500M) according to ATCC propagation protocol. Cells were maintained at a density of 3.5×10^5. The day before the experiment, Ramos B-cells were diluted to 3.5×10^5 cells/mL to ensure that they were in a logarithmic growth phase.
Cells were spun down and suspended in RPMI with 5% serum. 5×10^4 cells were used per point in a 96-well tissue culture plate. Cells were pre-incubated with compound or DMSO (Sigma-Aldrich, St. Louis, Mo., Cat No. D2650) vehicle control for 1 hour in a 37° C. incubator.
Cells were then stimulated with IL-4 (Peprotech Inc., Rocky Hill, N.J., Cat No. 200-04) for a final concentration of 50 units/mL for 20-24 hours. Cells were then spun down and stained with anti-CD23-PE (BD Pharmingen, San Diego, Calif., Cat No. 555711) and analyzed by FACS. Detection was performed using a BD LSR I System Flow Cytometer, purchased from Becton Dickinson Biosciences of San Jose, Calif.

Primary human T-cells = assay: Primary Human T-Cell Proliferation Assay Stimulated with IL-2 (CellTiter-Glo); type: cell-based; settings: read-out: Example 3 (IC50, primary human T-cell proliferation stimulated with IL-2)
Source text: The activity of the active compounds of the invention may further be characterized by assaying the effect of the 2,4-pyrimidinediamine compounds described herein on the proliferative response of primary human T-cells. In this assay, primary human T-cells derived from peripheral blood and pre-activated through stimulation of the T-cell receptor and CD28, proliferate in culture in response to the cytokine Interleukin-2 (IL-2). This proliferative response is dependent on the activation of JAK1 and JAK3 tyrosine kinases, which phosphorylate and activate the transcription factor Stat-5. The primary human T-cells are incubated with the 2,4-pyrimidinediamine compounds in the presence of IL-2 for 72 hours and at the assay endpoint intracellular ATP concentrations are measured to assess cell viability. A reduction in cell proliferation compared to control conditions is indicative of inhibition of the JAK kinase pathway. An exemplary assay of this type is described in greater detail in Example 3.
Primary human T-cells derived from peripheral blood and pre-activated through stimulation of the T-cell receptor and CD28, proliferate in vitro in response to the cytokine Interleukin-2 (IL-2). This proliferative response is dependent on the activation of JAK-1 and JAK-3 tyrosine kinases, which phosphorylate and activate the transcription factor Stat-5.
Human primary T cells were prepared as follows. Whole blood was obtained from a healthy volunteer, mixed 1:1 with PBS, layered on to Ficoll Hypaque (Amersham Pharmacia Biotech, Piscataway, N.J., Catalog #17-1440-03) in 2:1 blood/PBS:ficoll ratio and centrifuged for 30 min at 4° C. at 1750 rpm. The lymphocytes at the serum: ficoll interface were recovered and washed twice with 5 volumes of PBS. The cells were resuspended in Yssel's medium (Gemini Bio-products, Woodland, Calif., Catalog #400-103) containing 40 U/mL recombinant IL2 (R and D Systems, Minneapolis, Minn., Catalog #202-IL (20 μg)) and seeded into a flask pre-coated with 1 μg/mL anti-CD3 (BD Pharmingen, San Diego, Calif., Catalog #555336) and […] (Immunotech, Beckman Coulter of Brea Calif., Catalog #IM1376). The primary T-cells were stimulated for 3-4 days, then transferred to a fresh flask and maintained in RPMI with 10% FBS and 40 U/mL IL-2.
Primary T-cells were washed twice with PBS to remove the IL-2 and resuspended in Yssel's medium at 2×10^6 cells/mL. 50 μL of cell suspension containing 80 U/mL IL-2 was added to each well of a flat bottom 96 well black plate. For the unstimulated control, IL-2 was omitted from the last column on the plate. Compounds were serially diluted in dimethyl sulfoxide (DMSO, 99.7% pure, cell culture tested, Sigma-Aldrich, St. Louis, Mo., Catalog No. D2650) from 5 mM in 3-fold dilutions, and then diluted 1:250 in Yssel's medium. 50 μL of 2× compound was added per well in duplicate and the cells were allowed to proliferate for 72 hours at 37° C.
Proliferation was measured using CellTiter-Glo® Luminescent Cell Viability Assay (Promega), which determines the number of viable cells in culture based on quantitation of the ATP present, as an indicator of metabolically active cells. The substrate was thawed and allowed to come to room temperature. After mixing the Cell Titer-Glo reagent and diluent together, 100 μL was added to each well. The plates were mixed on an orbital shaker for two minutes to induce lysis and incubated at room temperature for an additional ten minutes to allow the signal to equilibrate. Detection was performed using a Wallac Victor2 1420 multilabel counter purchased from Perkin Elmer, Shelton, Conn.

[2] = Homo sapiens, Ramos, IL-4 50 units/mL, 20-24 hours, anti-CD23-PE staining, FACS
[3] = Homo sapiens, T-cell, 72 h, IL-2, 72 hours, ATP quantitation (CellTiter-Glo)
[4] = IL-4 50 units/mL, 20-24 hours, anti-CD23-PE staining, FACS
[5] = IL-2, 72 hours, ATP quantitation (CellTiter-Glo)

| Compound | IC50 [1, 4] [nM] | IC50 (Primary human T-cells; [5]) [nM] | other results |
| --- | --- | --- | --- |
| Cc1cnc(Nc2ccc(S(N)(=O)=O)cc2)nc1Nc1ccc2c(c1)C(NS(C)(=O)=O)CC2 (racemic) [VI-2, (+/−)-N2-(4-Aminosulfonylphenyl)-5-methyl-N4-[1-(methylsulfonyl)aminoindan-6-yl]-2,4-pyrimidinediamine] |  |  | IC50 [1, 2]: 279 nM; IC50 (Primary human T-cells; [3]): 1020 nM |
| N#CCOc1ccc(Nc2nc(Nc3cccc(CS(N)(=O)=O)c3)ncc2F)cc1 [Compound I-1, N2-[3-(Aminosulfonylmethylene)phenyl]-5-fluoro-N4-(4-cyanomethyleneoxyphenyl)-2,4-pyrimidinediamine] | 48.9 | 93 |  |
| CCS(=O)(=O)NCc1ccc(Nc2nc(Nc3ccc(CS(=O)(=O)NC)cc3)ncc2C)cc1 [Compound I-2, N4-(4-ethylsulfonylaminomethyl)phenyl-5-methyl-N2-(4-methylaminosulfonylmethyl)phenyl-2,4-pyrimidinediamine] | 70.3 | 79.6 |  |
| CNS(=O)(=O)Cc1ccc(Nc2ncc(F)c(Nc3ccc(CNS(=O)(=O)C4CC4)cc3)n2)cc1 [Compound I-8, N4-(4-cyclopropylsulfonylaminomethyl)phenyl-5-fluoro-N2-(4-methylaminosulfonylmethyl)phenyl-2,4-pyrimidinediamine] | 147 | 229 |  |
| CCS(=O)(=O)NCc1ccc(Nc2nc(Nc3ccc(CS(=O)(=O)NC)cc3)ncc2F)cc1 [Compound I-10, N4-(4-ethylsulfonylaminomethyl)phenyl-5-fluoro-N2-(4-methylaminosulfonylmethyl)phenyl-2,4-pyrimidinediamine] | 285 | 424 |  |
| Cc1cnc(Nc2ccc(CNS(=O)(=O)C3CC3)cc2)nc1Nc1ccc(CNS(=O)(=O)C2CC2)cc1 [II-1, N2,N4-bis(4-cyclopropylsulfonylaminomethyl)phenyl-5-methyl-2,4-pyrimidinediamine] | 45.2 | 26 |  |
| Cc1cnc(Nc2ccc(CCNS(=O)(=O)C3CC3)cc2)nc1Nc1ccc(CCNS(=O)(=O)C2CC2)cc1 [II-2, N2,N4-bis[4-(2-cyclopropylsulfonylamino)ethyl]phenyl-5-methyl-2,4-pyrimidine diamine] | 202 | 317 |  |
| COc1cc(Nc2nc(Nc3ccc4c(c3)CN(S(N)(=O)=O)CC4)ncc2F)ccc1Cl [III-1, N2-(2-Aminosulfonyl-1,2,3,4-tetrahydroisoquinolin-7-yl)-N4-(4-chloro-3-methoxyphenyl)-5-fluoro-2,4-pyrimidinediamine] |  |  | IC50 [1, 2]: 129 nM; IC50 (Primary human T-cells; [3]): 279 nM |
| NS(=O)(=O)N1CCc2ccc(Nc3ncc(F)c(Nc4ccc(CNS(=O)(=O)C5CC5)cc4)n3)cc2C1 [III-2, N2-(2-Aminosulfonyl-1,2,3,4-tetrahydroisoquinolin-7-yl)-N4-[4-(cyclopropylsulfonylaminomethyl)phenyl]-5-fluoro-2,4-pyrimidinediamine] |  |  | IC50 [1, 2]: 27.4 nM; IC50 (Primary human T-cells; [3]): 16.6 nM |
| C#CCOc1ccc(Nc2nc(Nc3ccc4c(c3)CN(S(N)(=O)=O)CC4)ncc2F)cc1 [III-4, N2-(2-Aminosulfonyl-1,2,3,4-tetrahydroisoquinolin-7-yl)-N4-(4-(prop-2-ynyloxy)phenyl)-5-fluoro-2,4-pyrimidinediamine] |  |  | IC50 ([1]; Homo sapiens, Ramos): 101 nM; IC50 (Primary human T-cells; Homo sapiens, T-cell, 72 h): 129 nM |
| CC1(C)Oc2cc(Nc3nc(Nc4cccc(CS(N)(=O)=O)c4)ncc3F)cnc2NC1=O [IV-1, N2-[3-(Aminosulfonylmethylene)phenyl]-N4-[2,2-dimethyl-3-oxo-4H-pyrid[1,4]oxazin-7-yl]-5-fluoro-2,4-pyrimidinediamine] | 133 | 482 |  |
| CN1C(=O)C(C)(C)Oc2cc(Nc3nc(Nc4cccc(CS(N)(=O)=O)c4)ncc3F)cnc21 [IV-2, N2-[3-(Aminosulfonylmethylene)phenyl]-N4-[2,2-dimethyl-3-oxo-4-methyl-pyrid[1,4]oxazin-7-yl]-5-fluoro-2,4-pyrimidinediamine] | 170 | 881 |  |
